The nature of data set [1]: Cytotoxicity against human L02 cells assessed as inhibition of cell growth incubated for 72 hrs by CCK-8 assay. The format is toxicity, cell-based. In general terms: Formazan colour is commonly taken as a measure of viable cells.
The subject of another data set is MIA PaCa-2. The data set is described as follows: cells. Conditions: Homo sapiens, MIA PaCa-2, 72 h.
For the next data set, the system named is ASPC1. The data set can be described thus: cells. Conditions: Homo sapiens, ASPC1, 72 h.
The next data set deals with NCI-H1975. The data set is described as follows: cells. Conditions: Homo sapiens, NCI-H1975, 72 h.
The subject of another data set is Raji. The data set can be described thus: cells. Conditions: Homo sapiens, 72 h.
In a further data set the test system is KM3/BTZ. The data set can be described thus: cells. Conditions: Homo sapiens, 72 h.
A further data set concerns the target Focal adhesion kinase 1 (Homo sapiens, UniProt Q05397). The data set is described as follows: Inhibition of recombinant human FAK (393 to 698 residues) using poly (4:1 Glu, Tyr) peptide as substrate incubated for 60 mins in presence of ATP by ADP-Glo reagent based luminescent assay. In general terms: ADP-Glo turns the ADP formed in a reaction into a luminescent signal.

A value given as a limit tells only on which side of the number the result lay.

Chain of Focal adhesion kinase 1 (Q05397 whole entry, the tested form may be a part): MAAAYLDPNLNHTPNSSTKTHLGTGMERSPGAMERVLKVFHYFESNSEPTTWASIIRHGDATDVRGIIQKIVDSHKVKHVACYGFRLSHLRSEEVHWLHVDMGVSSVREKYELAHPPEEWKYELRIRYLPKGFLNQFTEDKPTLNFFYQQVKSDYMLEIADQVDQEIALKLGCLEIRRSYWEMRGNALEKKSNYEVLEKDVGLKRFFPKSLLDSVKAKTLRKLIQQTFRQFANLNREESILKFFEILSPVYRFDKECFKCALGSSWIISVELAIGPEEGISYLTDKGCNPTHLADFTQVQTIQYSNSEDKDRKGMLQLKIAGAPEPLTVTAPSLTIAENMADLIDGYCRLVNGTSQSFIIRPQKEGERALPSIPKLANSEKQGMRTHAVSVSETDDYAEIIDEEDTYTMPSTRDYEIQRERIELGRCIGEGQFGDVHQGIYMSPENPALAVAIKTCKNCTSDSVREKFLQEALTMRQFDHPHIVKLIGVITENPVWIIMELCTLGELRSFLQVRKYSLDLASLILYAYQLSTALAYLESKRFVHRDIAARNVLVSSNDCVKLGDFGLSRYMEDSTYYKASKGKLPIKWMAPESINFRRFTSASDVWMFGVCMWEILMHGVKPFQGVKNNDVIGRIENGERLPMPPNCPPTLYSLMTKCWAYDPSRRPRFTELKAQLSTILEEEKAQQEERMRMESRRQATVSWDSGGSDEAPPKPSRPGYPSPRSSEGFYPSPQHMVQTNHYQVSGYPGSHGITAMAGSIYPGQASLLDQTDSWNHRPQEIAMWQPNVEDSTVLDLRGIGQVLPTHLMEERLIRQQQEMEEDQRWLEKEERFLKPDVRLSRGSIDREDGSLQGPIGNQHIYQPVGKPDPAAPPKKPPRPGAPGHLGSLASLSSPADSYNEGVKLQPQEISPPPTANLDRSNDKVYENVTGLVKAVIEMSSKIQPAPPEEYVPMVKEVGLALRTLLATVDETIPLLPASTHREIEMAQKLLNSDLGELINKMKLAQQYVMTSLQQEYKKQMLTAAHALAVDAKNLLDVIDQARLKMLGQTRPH
Description for ASPC1: Antiproliferative activity against human ASPC1 cells harboring KRAS,TP53,CDKN2A and DPC4/SMAD4 mutations assessed as inhibition of cell growth incubated for 72 hrs by CCK-8 assay
Description for KM3/BTZ: Antiproliferative activity against bortezomib- resistant human KM3/BTZ cells assessed as inhibition of cell growth incubated for 72 hrs by CCK-8 assay
Description for MIA PaCa-2: Antiproliferative activity against human MIA PaCa-2 cells harboring KRAS,TP53,CDKN2A and DPC4/SMAD4 mutations assessed as inhibition of cell growth incubated for 72 hrs by CCK-8 assay
Description for NCI-H1975: Antiproliferative activity against gefitinib-resistant human NCI-H1975 cells assessed as inhibition of cell growth incubated for 72 hrs by CCK-8 assay
Description for Raji: Antiproliferative activity against human Raji cells assessed as inhibition of cell growth incubated for 72 hrs by CCK-8 assay

By IC50 is commonly meant the concentration at which inhibition is half-maximal. For the molecule `CNC(=O)c1ccccc1Nc1nc(Nc2ccc(N3CCOCC3)cc2OC)ncc1Cl`, the IC50 at 72 h in data set [1] came out at 5210 nM. Moreover, the IC50 in the data set with MIA PaCa-2 is 5230 nM; in the data set on ASPC1 it was 4820 nM; in the data set with NCI-H1975, over 10000 nM; in the data set on Raji, over 10000 nM; with KM3/BTZ, 4390 nM.
As to `CC(C)S(=O)(=O)c1ccccc1Nc1nc(Nc2ccc(CN3CCSCC3)cc2)ncc1Cl`, in data set [1], the IC50 at 72 h is 1140 nM. The IC50 in the data set with MIA PaCa-2 came out at 452 nM; in the data set on ASPC1, 735 nM; in the data set on NCI-H1975 it was 3510 nM; with Raji, 2210 nM; in the data set on KM3/BTZ, 2490 nM.
Take `CC(C)S(=O)(=O)c1ccccc1Nc1nc(Nc2ccc(CN3CCC(C(=O)NCCCCCC(=O)NO)CC3)cc2)ncc1Cl`: the IC50 at 72 h in data set [1] stood at 2990 nM. Besides, the concentration for half-maximal inhibition (IC50) was 1230 nM with MIA PaCa-2; 6980 nM in the data set on ASPC1; 7860 nM with NCI-H1975; over 10000 nM with Raji; 2890 nM in the data set on KM3/BTZ.
For the molecule `CC(C)S(=O)(=O)c1ccccc1Nc1nc(Nc2ccc(CN3CCC(CO)CC3)cc2)ncc1Cl`, the IC50 at 72 h in data set [1] was determined as 192 nM. Moreover, the IC50 in the data set on MIA PaCa-2 was 235 nM; in the data set with ASPC1, 139 nM; in the data set with NCI-H1975, 6290 nM; in the data set with Raji, 1220 nM; in the data set with KM3/BTZ, 159 nM.
Consider `COC(=O)CCCCCNC(=O)C1CCN(c2ccc(Nc3ncc(Cl)c(Nc4ccccc4S(=O)(=O)C(C)C)n3)cc2)CC1`, for which the IC50 at 72 h in data set [1] is 1980 nM. Moreover, the IC50 in the data set with MIA PaCa-2 is 622 nM; in the data set on ASPC1 it was 1920 nM; in the data set on NCI-H1975 it was 7420 nM; in the data set with Raji, over 10000 nM; with KM3/BTZ, 9770 nM.
Regarding `CCC(C)C(CO)NC(=O)C1CCN(Cc2ccc(Nc3ncc(Cl)c(Nc4ccccc4S(=O)(=O)C(C)C)n3)cc2)CC1` (stereo not given), in data set [1], the IC50 at 72 h stood at 1390 nM. The IC50 in the data set with MIA PaCa-2 is 1900 nM; with ASPC1 it was 394 nM; in the data set on NCI-H1975, 8200 nM; in the data set on Raji, over 10000 nM; in the data set with KM3/BTZ it was 2580 nM.
With `CCOP(=O)(Cc1ccc(Nc2ncc(Cl)c(Nc3ccccc3S(=O)(=O)C(C)C)n2)cc1)OCC`, the IC50 at 72 h in data set [1] worked out at 7930 nM. Further, the IC50 is 4710 nM with MIA PaCa-2; 2980 nM with ASPC1; 0.315 nM on Focal adhesion kinase 1; 2950 nM in the data set with NCI-H1975; 1670 nM in the data set on Raji; over 10000 nM in the data set with KM3/BTZ.
As for `CC(C)S(=O)(=O)c1ccccc1Nc1nc(Nc2ccc(N3CCC(C(=O)O)CC3)cc2)ncc1Cl`, the IC50 at 72 h in data set [1] came to 1510 nM. For the same molecule, the IC50 with MIA PaCa-2 was 2120 nM; with ASPC1 it was 916 nM; with NCI-H1975, 2710 nM; in the data set with Raji, 1480 nM; with KM3/BTZ, 3680 nM.
For the molecule `CC(C)S(=O)(=O)c1ccccc1Nc1nc(Nc2ccc(CN3CCC(C(=O)O)CC3)cc2)ncc1Cl`, the IC50 at 72 h in data set [1] was found to be 1270 nM. The IC50 in the data set with MIA PaCa-2 is 1130 nM; with ASPC1, 472 nM; in the data set with NCI-H1975, 2810 nM; in the data set on Raji, over 10000 nM; in the data set with KM3/BTZ, 1020 nM.
On to `CC(C)S(=O)(=O)c1ccccc1Nc1nc(Nc2ccc(NC(=O)CN3CCC(C(=O)O)CC3)cc2)ncc1Cl`, for which the IC50 at 72 h in data set [1] worked out at 2320 nM. The IC50 in the data set with MIA PaCa-2 stood at 5050 nM; in the data set with ASPC1, 3680 nM; with NCI-H1975, 7510 nM; with Raji, 3250 nM; in the data set on KM3/BTZ, 2160 nM.
Consider `CCOC(=O)C1CCN(c2ccc(Nc3ncc(Cl)c(Nc4ccccc4S(=O)(=O)C(C)C)n3)cc2)CC1`, for which the IC50 at 72 h in data set [1] worked out at 980 nM. In addition, the IC50 was 12.6 nM with MIA PaCa-2; 451 nM with ASPC1; 9640 nM with NCI-H1975; over 10000 nM with Raji; over 10000 nM in the data set on KM3/BTZ.
`CC(C)S(=O)(=O)c1ccccc1Nc1nc(Nc2ccc(CN3CCC(C(=O)NCCO)CC3)cc2)ncc1Cl`: the IC50 at 72 h in data set [1] was 978 nM. Further, the IC50 was 459 nM in the data set on MIA PaCa-2; 288 nM in the data set on ASPC1; 494 nM in the data set on NCI-H1975; over 10000 nM in the data set with Raji; 497 nM with KM3/BTZ.
Take `CCOC(=O)C1CCN(Cc2ccc(Nc3ncc(Cl)c(Nc4ccccc4S(=O)(=O)C(C)C)n3)cc2)CC1`: in data set [1], the IC50 at 72 h was 453 nM. The IC50 in the data set on MIA PaCa-2 was 7090 nM; in the data set with ASPC1, 295 nM; with NCI-H1975, 2080 nM; in the data set on Raji it was 2960 nM; in the data set with KM3/BTZ, 262 nM.
As for `CC(C)S(=O)(=O)c1ccccc1Nc1nc(Nc2ccc(SCCCN3CCOCC3)cc2)ncc1Cl`, the IC50 at 72 h in data set [1] came out at 8650 nM. The IC50 in the data set on MIA PaCa-2 is 4760 nM; with ASPC1, 3520 nM; in the data set with NCI-H1975 it was 2880 nM; in the data set on Raji, over 10000 nM; in the data set on KM3/BTZ, over 10000 nM.
Take `CCOC(=O)C1CCN(CC(=O)Nc2ccc(Nc3ncc(Cl)c(Nc4ccccc4S(=O)(=O)C(C)C)n3)cc2)CC1`: the IC50 at 72 h in data set [1] amounted to 1220 nM. The IC50 in the data set with MIA PaCa-2 worked out at 5270 nM; in the data set on ASPC1, 989 nM; in the data set with NCI-H1975, 2920 nM; in the data set on Raji, 1320 nM; in the data set on KM3/BTZ it was 2320 nM.
As to `CC(C)S(=O)(=O)c1ccccc1Nc1nc(Nc2ccc(NC(=O)CN3CCC(C(=O)NCCCCCC(=O)NO)CC3)cc2)ncc1Cl`, the IC50 at 72 h in data set [1] was 5050 nM. Also, the IC50 is 1230 nM in the data set with MIA PaCa-2; 3180 nM with ASPC1; over 10000 nM with NCI-H1975; over 10000 nM with Raji; over 10000 nM in the data set with KM3/BTZ.
With `COC(=O)CCCCCNC(=O)C1CCN(CC(=O)Nc2ccc(Nc3ncc(Cl)c(Nc4ccccc4S(=O)(=O)C(C)C)n3)cc2)CC1`, the IC50 at 72 h in data set [1] was determined as 7010 nM. Moreover, the IC50 with MIA PaCa-2 was 1230 nM; in the data set with ASPC1, 5940 nM; with NCI-H1975, 3820 nM; in the data set on Raji it was over 10000 nM; in the data set on KM3/BTZ, over 10000 nM.
For the molecule `CC(C)S(=O)(=O)c1ccccc1Nc1nc(Nc2ccc(OCC(=O)N3CCOCC3)cc2)ncc1Cl`, in data set [1], the IC50 at 72 h came to 368 nM. The IC50 in the data set on MIA PaCa-2 is 714 nM; in the data set with ASPC1 it was 259 nM; with NCI-H1975, 347 nM; in the data set with Raji, 3270 nM; in the data set on KM3/BTZ, 1610 nM.
For `CC(C)S(=O)(=O)c1ccccc1Nc1nc(Nc2ccc(N3CCC(C(=O)NCCCCCC(=O)NO)CC3)cc2)ncc1Cl`, in data set [1], the IC50 at 72 h came to 755 nM. Besides, the IC50 with MIA PaCa-2 is 1170 nM; in the data set on ASPC1 it was 2380 nM; with NCI-H1975, 4140 nM; in the data set on Raji, over 10000 nM; with KM3/BTZ it was over 10000 nM.

Values taken from ChEMBL document CHEMBL5107989, “Design, synthesis and activity evaluation of isopropylsulfonyl-substituted 2,4- diarylaminopyrimidine derivatives as FAK inhibitors for the potential treatment of pancreatic cancer” (Eur J Med Chem, 2022).
